Results from patent US11440907B1 (Merck Patent GmbH, priority 2018, dated 2022).

test system: XBP1(u)-luciferase splicing reporter in HepG2 hepatoma cells; assay: HepG2 XBP1 reporter assay (XBP1(u)-Luc); format: cell-based; conditions: Homo sapiens, 6 h, six hours after addition of compound
Description: HepG2 XBP1 Reporter Assay
HepG2 hepatoma cells were transduced with a retrovirus encoding the cDNA for unspliced (u) XBP1, which contains a non-processed intron, fused to the cDNA for firefly luciferase. Upon induction of ER stress, the non-processed intron of XBP1(u) is spliced out by active IRE1alpha endonuclease. The resulting spliced (s) XBP1 is now in frame with luciferase which causes the production of active luciferase protein, resulting in bioluminescence
HepG2 XBP1(u)-Luc cells were plated […] Cultured cells with a stably transfected reporter construct were plated at approximately 30,000 cells per well into 96 well multi-well plates for twenty four hours. The testing compounds were then added to the wells in 3-fold serial dilutions using a twenty seven micromolar top concentration. A series of control wells for each cell type received only compound solvent. Six hours after the addition of compound, reporter activity for luciferase was assayed, by addition of the SteadyGlo luminescence reagent (Promega). The reporter luminescence activity was measured using Pherastar plate reader (BMG Labtech). Readings was normalized to DMSO only treated cells, and normalized activities were then used in the IC50 calculations. The HepG2 XBP1 reporter assay data are summarized in Tables 3-5: A<0.6 μM; 0.6 μM≤B<2.0 μM; 2.0 μM≤C<5.0 μM; D≥5.0 μM.

| IC50 [nM] | Structure (SMILES) |
| --- | --- |
| < 600 | Cc1cc(N2CCCOCC2c2cc3c(cc2Cl)NC[C@@](C)(C(=O)OC(C)C)O3)nc(N)n1 (stereo partly drawn) [D-125] |
| 2000 to 5000 | Cc1cc(N2CCCOCC2c2ccc(C3CCN(C4COC4)CC3)cc2Cl)nc(N)n1 [D-70] |
| < 600 | Cc1cc(N2CCCOC[C@@H]2c2cc3c(cc2Cl)NC[C@@](C)(C(=O)N2CCOCC2)O3)nc(N)n1 [D-126] |
| < 600 | Cc1cc(N2CCCOC[C@@H]2c2cc3c(cc2Cl)NC[C@@](C)(C(N)=O)O3)nc(N)n1 [D-120] |
| < 600 | Cc1cc(N2CCCOC[C@@H]2c2ccc(CS(C)(=O)=O)nc2OC(F)F)nc(N)n1 [D-93] |
| 600 to 2000 | Cc1cc(N2CCCOC[C@@H]2c2ccc([C@H](C)S(C)(=O)=O)cc2Cl)nc(N)n1 [D-139] |
| 600 to 2000 | COc1cc(C2COCCCN2c2cc(C)nc(N)n2)c(Cl)cc1OCC(=O)NC(C)(C)C [D-32] |
| ≥ 5000 | Cc1cc(N2CCCOC[C@H]2c2ccc(CS(C)(=O)=O)nc2OC(F)F)nc(N)n1 [D-173] |
| < 600 | Cc1cc(N2CCCOCC2c2cc(O)c(NC(=O)C3CC3)cc2Cl)nc(N)n1 [D-112] |
| < 600 | Cc1cc(N2CCCOC[C@@H]2c2cc(CN)c(Cl)cc2C)nc(N)n1 [D-99] |
| ≥ 5000 | Cc1cc(N2CCCOC[C@@H]2c2ccc(C(C)(C)S(C)(=O)=O)cc2Cl)nc(N)n1 [D-191] |
| ≥ 5000 | Cc1cc(N2CCCOCC2c2cnc(CS(C)(=O)=O)nc2O)nc(N)n1 [D-172] |
| ≥ 5000 | Cc1cc(N2CCCOCC2c2ccc(Br)cc2OC(F)(F)F)nc(N)n1 [D-140] |
| 600 to 2000 | Cc1cc(N2CCCOC[C@@H]2c2cc3c(cc2Cl)OCC2(CC2)CO3)nc(N)n1 [D-16] |
| 600 to 2000 | Cc1cc(N2CCCOCC2c2ncc(CS(C)(=O)=O)cc2OC(F)F)nc(N)n1 [D-67] |
| < 600 | Cc1cc(N2CCCOC[C@@H]2c2ccc(NCC3CCOC3)cc2Cl)nc(N)n1 (stereo partly drawn) [D-83] |
| ≥ 5000 | Cc1cc(N2CCCOC[C@@H]2c2cc3c(cc2Cl)NC[C@@](C)(C(=O)O)O3)nc(N)n1 [D-181] |
| 600 to 2000 | CCOc1cc(C2COCCCN2c2cc(C)nc(N)n2)c(Cl)cc1OCC(=O)OC [D-44] |
| ≥ 5000 | Cc1cc(N2CCCOC[C@H]2c2ncc(CS(C)(=O)=O)cc2Cl)nc(N)n1 [D-167] |
| ≥ 5000 | Cc1cc(N2CCCOC[C@H]2c2cc(O)c(OC(F)(F)F)cc2Cl)nc(N)n1 [D-184] |
| ≥ 5000 | Cc1cc(N2CCCOC[C@H]2c2cc(O)c(C(=O)N3CCOCC3)cc2Cl)nc(N)n1 [D-189] |
| 600 to 2000 | CCCC(=O)Nc1ccc(C2COCCCN2c2cc(C)nc(N)n2)c(Cl)c1 [D-95] |

| IC50 [nM] | Structure (SMILES) |
| --- | --- |
| ≥ 5000 | Cc1cc(N2CCCOC[C@H]2c2cc(CN)c(C)cc2Cl)nc(N)n1 [D-164] |
| < 600 | C#CCOc1cc(Cl)c([C@H]2COCCCN2c2cc(C)nc(N)n2)cc1OC [D-105] |
| < 600 | Cc1cc(N2CCCOC[C@@H]2c2cc3c(cc2Cl)NC[C@@](C)(C(=O)N(C)C)O3)nc(N)n1 [D-132] |
| 600 to 2000 | Cc1cc(N2CCCOC[C@@H]2c2ccc(N3CCN(C(=O)OC(C)(C)C)CC3)cc2Cl)nc(N)n1 [D-82] |
| 600 to 2000 | C#Cc1ccccc1C1COCCCN1c1cc(C)nc(N)n1 [D-113] |
| < 600 | CCC(=O)Nc1cc(Cl)c(C2COCCCN2c2cc(C)nc(N)n2)cc1O [D-97] |
| < 600 | Cc1cc(N2CCCOCC2c2cc3c(cc2Cl)NC[C@@](C)(C(=O)NC2CC2)O3)nc(N)n1 (stereo partly drawn) [D-122] |
| ≥ 5000 | CCOC(=O)c1cc(C2COCCCN2c2cc(C)nc(N)n2)c(Cl)cc1C#N [D-129] |
| < 600 | Cc1cc(N2CCCOC[C@@H]2c2ccc([C@@H]3CCCN3)cc2Cl)nc(N)n1 [D-91] |
| 600 to 2000 | C=CCOc1cc(Cl)c(C2COCCCN2c2cc(C)nc(N)n2)cc1OCC [D-48] |
| ≥ 5000 | CCc1cc(N2CCCOC[C@H]2c2cc(O)c(OC)cc2Cl)nc(N)n1 [D-179] |
| ≥ 5000 | Cc1cc(N2CCCOC[C@H]2c2cc(O)c(C(N)=O)cc2Cl)nc(N)n1 [D-180] |
| ≥ 5000 | COc1ccc([C@@H]2COCCCN2c2cc(C)nc(N)n2)c(Cl)c1 [D-168] |
| < 600 | Cc1cc(N2CCCOCC2c2cc3c(cc2Cl)NC[C@@](C)(C(=O)NC(C)C)O3)nc(N)n1 (stereo partly drawn) [D-124] |
| ≥ 5000 | Cc1cc(N2CCCOC[C@H]2c2cc3c(cc2Cl)NC[C@@](C)(C(=O)O)O3)nc(N)n1 [D-114] |
| ≥ 5000 | Cc1cc(N2CCCOC[C@@H]2c2cnc(CS(C)(=O)=O)cc2Cl)nc(N)n1 [D-166] |
| < 600 | Cc1cc(N2CCCOCC2c2ccc(C(C)(C)S(C)(=O)=O)cc2Cl)nc(N)n1 [D-136] |
| ≥ 5000 | CCc1cc(N2CCCOC[C@H]2c2ccc(OS(C)(=O)=O)cc2Cl)nc(N)n1 [D-162] |
| < 600 | COc1cc(OC)c(C2COCCCN2c2cc(C)nc(N)n2)cc1O [D-127] |
| ≥ 5000 | CS(=O)(=O)c1ccc(C2COCCCN2c2cc(C(F)(F)F)nc(N)n2)c(Cl)c1 [D-188] |
| ≥ 5000 | Cc1cc(N2CCCOCC2c2cc(CC(=O)O)c(C#N)cc2Cl)nc(N)n1 [D-156] |

same assay, conditions: Homo sapiens, 6 hours after compound addition, Table 4

| IC50 [nM] | Structure (SMILES) |
| --- | --- |
| < 600 | Cc1cc(N2CCCOC[C@@H]2c2cc3c(cc2Cl)OCCO3)nc(N)n1 [C-70] |
| ≥ 5000 | Cc1cc(N2CCCOC[C@H]2c2cc(C)c(N)cc2Cl)nc(N)n1 [C-114] |
| < 600 | COc1cc(C2COCCCN2c2cc(C)nc(N)n2)c(Cl)cc1N (stereo not drawn) [C-76] |
| < 600 | COc1cc(C2COCCCN2c2cc(C)nc(N)n2)c(Cl)cc1OCC#N (stereo not drawn) [C-98] |
| 600 to 2000 | COc1cc(C2COCCCN2c2nc(C)nc(N)n2)c(Cl)cc1N1CCCCC1 (stereo not drawn) [C-101] |
| ≥ 5000 | CCOc1cc(Cl)c([C@@H]2COCCCN2c2cc(C)nc(N)n2)cc1OC [C-86] |
| < 600 | Cc1cc(N2CCCOC[C@@H]2c2cc(C)c(N)cc2Cl)nc(N)n1 [C-115] |
| 600 to 2000 | Cc1cc(N2CCCOC[C@H]2c2cc3c(cc2Cl)NC(=O)CO3)nc(N)n1 [C-131] |
| < 600 | COc1cc(Cl)c([C@H]2COCCCN2c2cc(C)nc(N)n2)cc1OC [C-80] |
| ≥ 5000 | Cc1cc(N2CCCOCC2c2cc3c(cc2Cl)CCCN3C)nc(N)n1 (stereo not drawn) [C-129] |
| 600 to 2000 | Cc1cc(N2CCCOC[C@@H]2c2ccc(N3CCC(C)(O)CC3)c(F)c2Cl)nc(N)n1 [C-126] |
| 600 to 2000 | CC1=C(F)CN(c2ccc([C@H]3COCCCN3c3cc(C)nc(N)n3)c(Cl)c2)CC1 [C-123] |
| 600 to 2000 | Cc1cc(N2CCCOCC2c2cc3c(cc2Cl)OCC(C)(C)CO3)nc(N)n1 (stereo not drawn) [C-55] |
| 2000 to 5000 | Cc1cc(N2CCCOC=C2c2c(O)cc(N3CCC(C)(O)CC3)cc2Cl)nc(N)n1 [C-127] |
| 600 to 2000 | CCOC(=O)[C@H](C)Oc1cc(Cl)c([C@H]2COCCCN2c2cc(C)nc(N)n2)cc1OC [C-150] |
| < 600 | Cc1cc(N2CCCOCC2c2ccc(CS(C)(=O)=O)cc2OC(F)(F)F)nc(N)n1 (stereo not drawn) [C-113] |
| ≥ 5000 | Cc1cc(N2CC3(CC3)COC[C@@H]2c2ccc(CS(C)(=O)=O)cc2Cl)nc(N)n1 [C-136] |
| 600 to 2000 | Cc1cc(N2CCCOCC2c2cc(OC(F)(F)F)c(N)cc2Cl)nc(N)n1 (stereo not drawn) [C-130] |
| 600 to 2000 | Cc1cc(N2CCCOCC2c2ccc(CS(C)(=O)=O)nc2Cl)nc(N)n1 (stereo not drawn) [C-82] |

| IC50 [nM] | Structure (SMILES) |
| --- | --- |
| < 600 | CSCOc1ccc(C2COCCCN2c2cc(C)nc(N)n2)c(Cl)c1 (stereo not drawn) [C-105, 4-[3-(2-Chloro-4-methylsulfanylmethoxy-phenyl)-[1,4]oxazepan-4-yl]-6-methyl-pyrimidin-2-ylamine] |
| < 600 | Cc1cc(N2CCCOCC2c2cc3c(cc2Cl)NCCC3)nc(N)n1 (stereo not drawn) [C-43] |
| 600 to 2000 | COC(=O)COc1cc(Cl)c(C2COCCCN2c2cc(C)nc(N)n2)cc1OC (stereo not drawn) [C-44] |
| < 600 | Cc1cc(N2CCCOCC2c2cc(N)c(OC(F)(F)F)cc2Cl)nc(N)n1 (stereo not drawn) [C-141] |
| 600 to 2000 | COc1cc(Cl)c(C2COCCCN2c2cc(C)nc(N)n2)cc1C (stereo not drawn) [C-99] |
| 600 to 2000 | Cc1cc(Cl)c(C2COCCCN2c2cc(N)nc(N)n2)cc1C (stereo not drawn) [C-27] |
| < 600 | CCNc1cc(Cl)c([C@H]2COCCCN2c2cc(C)nc(N)n2)cc1C [C-146] |
| 2000 to 5000 | CCOC(=O)[C@H](C)Oc1cc(Cl)c([C@@H]2COCCCN2c2cc(C)nc(N)n2)cc1OC [C-149] |
| 600 to 2000 | CCCOc1cc(Cl)c(C2COCCCN2c2cc(C)nc(N)n2)cc1OCC (stereo not drawn) [C-91] |
| 600 to 2000 | Cc1cc(N2CCCOCC2c2cc(C)c(N3CCCC3)cc2Cl)nc(N)n1 (stereo not drawn) [C-112] |
| < 600 | Cc1cc(N2CC(O)COC[C@@H]2c2ccc(N3CCC(C)(O)CC3)cc2Cl)nc(N)n1 (stereo partly drawn) [C-124] |
| < 600 | Cc1cc(N2CCCOC[C@@H]2c2ccc(CS(C)(=O)=O)cc2F)nc(N)n1 [C-50, 4-[(S)-3-(2-Fluoro-4-methanesulfonylmethyl-phenyl)-[1,4]oxazepan-4-yl]-6-methyl-pyrimidin-2-ylamine] |
| < 600 | CNc1cc(Cl)c(C2COCCCN2c2cc(C)nc(N)n2)cc1C (stereo not drawn) [C-25] |
| < 600 | CCOc1cc(Cl)c([C@H]2COCCCN2c2cc(C)nc(N)n2)cc1OC [C-85] |
| ≥ 5000 | CC[C@@H]1COC[C@@H](c2ccc(CS(C)(=O)=O)cc2Cl)N(c2cc(C)nc(N)n2)C1 [C-110] |
| 600 to 2000 | Cc1cc(N2CCCOCC2c2cc(O)c(Cl)cc2Cl)nc(N)n1 (stereo not drawn) [C-9] |
| ≥ 5000 | Cc1cc(N2C[C@H](C)COC[C@H]2c2ccc(CS(C)(=O)=O)cc2Cl)nc(N)n1 [C-139] |
| 600 to 2000 | CCCOc1cc(Cl)c(C2COCCCN2c2cc(C)nc(N)n2)cc1OC (stereo not drawn) [C-47] |
| 600 to 2000 | Cc1cc(N2CCCOCC2c2cc(Cl)c(OC(F)F)cc2Cl)nc(N)n1 (stereo not drawn) [C-57] |
